Here are results for three compounds from patent US5854279A, “Therapeutic agent for dermatosis” (Eisai Co., Ltd, priority 1996, dated 1998).

Usually LD50 stands for the dose expected to kill half of the subjects tested.

The structures appear in SMILES notation. Counter-ions that a name gives are not always drawn.

Data set [1] deals with epidermal ornithine decarboxylase (ODC). The data set is described as follows: TPA-induced mouse epidermal ornithine decarboxylase (ODC) activity. The format is in vivo, hairless mouse (SKH/hr-1). The following applies: for Epidermal ODC Activity: TPA 17 nmol, average of five cases ± standard error. As to the method: (2) Measurement of Mouse Epidermal Ornithine Decarboxylase (ODC) Activity
1) Induction of ODC Activity
The experiment was carried out according to the method by O'Brien et al. (Cancer Research, 1975, 35(2), p 1662-1670).
[…] of acetone solution containing 17 nmol of TPA (phorbol 12-myristate 13-acetate, manufactured by Sigma) and 0.5 to 2 μmol of Compound (II) or 2-(2-acetyl-6-methoxy-3,9-dioxo-4,8-dioxa-2,10-diazaoctacosa-1-yl)-1-ethylpyridinium salt (customary name; CV-6209, manufactured by Wako Junyaku) was homogeneously applied on the skin of the back (about 8 cm^2) of the hairless mouse (strain: SKH/hr-1, female, age in week of 9). After 4.5 hours, mouse was killed by anesthetizing with ether, and skin tissue was excised. The skin tissue was treated at 55° C. for 30 seconds, then ice-cooled and the epidermis was peeled off. To this epidermis, 1 ml of 50 mM sodium phosphate buffer [pH 7.2, 0.4 mM pyridoxal 5-phosphate (manufactured by Sigma), 5 mM dithiothreitol (manufactured by Sigma)] were added, homogenized and then centrifuged at 4° C. and 30,000 g for 30 minutes to obtain a supernatant.
2) Measurement of ODC Activity
ODC activity in the supernatant was measured by ^14 CO2 release from L-[1-^14 C]ornithine (manufactured by Sigma) as an index. A tube containing 50 μl of the above buffer comprising 1 mM L-ornithine and […] L-[1-^14 C]ornithine (manufactured by Amersham) as well as 100 μl of homogenate sample added thereto was rapidly placed into a vial, and sealed. This vial was incubated at 37° C. for one hour, to which was added 0.3 ml of 2M citric acid solution and further incubated for one hour. ^14 CO2 released during this period was trapped by using a filter containing 0.15 ml of NCS solubilizer set in the reaction vial. After removing out the tube, 15 ml of liquid scintillator (ACSII) was added and radioactivity in the vial was measured by using a liquid scintillation counter.
Further, the concentration of protein in the homogenate sample was quantified by using the above BIO-RAD PROTEIN ASSAY, and the amount of the released ^14 CO2 /mg protein was calculated and used as an index of ODC activity.

Data set [2] in a line: Acute toxicity test, single intravenous dosage (LD50), mouse. Set-up: species or system mouse (Slc:ICR). The following applies: in vivo. The source says: (§1) Slc:SD rat and Slc:ICR mice (age in week of 6 to 8), each group has 5 male and 5 female, were applied to a toxicity test upon single dosage carried out by intravenous administration.
The nature of data set [3]: Acute toxicity test, single intravenous dosage (LD50), rat. Set-up: species or system rat (Slc:SD). The settings on record: in vivo.
From the text: as §1

The subject of data set [4] is TPA-induced earlobe edema. The data set is described as follows: TPA-induced ear edema. The settings on record: for Right earlobe edema: TPA 2 μmol, average of seven cases ± SEM. The format is in vivo, BALB/c mouse. As to the method: The test was conducted according to the method by Carlson et al. (Agents and Actions, 1985, 17(2), p 197-204).
That is, 2 mg of TPA (phorbol 12-myristate 13-acetate, manufactured by Sigma Chemical Co.) and 4 to 100 nmol of Compound (II) or 250 nmol of dexamethasone (manufactured by Sigma Chemical Co.) were dissolved in […] of acetone. The mixture was applied to inner surface of the right earlobe of BALB/c mouse (male, age in week of 8), to induce inflammation. Four hours after TPA application, the mouse was killed by dislocation of cervical vertebrae and the thickness of each right and left earlobe was measured by using a Dial Thickness Gauge (manufactured by Peacock Co., G0.01 to 10 mm) and the difference in thickness between right and left earlobe was considered as edema.

Another data set deals with MPO (myeloperoxidase). The experiment in a line: MPO activity in TPA-treated earlobe. The following applies: for MPO Activity: TPA 2 μmol, average of seven cases ± SEM. The format is in vivo, BALB/c mouse. As to the method: The mixture was applied to inner surface of the right earlobe of BALB/c mouse (male, age in week of 8), to induce inflammation. Four hours after TPA application, the mouse was killed by dislocation of cervical vertebrae and the thickness of each right and left earlobe was measured by using a Dial Thickness Gauge (manufactured by Peacock Co., G0.01 to 10 mm) and the difference in thickness between right and left earlobe was considered as edema.
2) Measurement of MPO Activity
After measurement of edema, MPO (myeloperoxidase) activity of the excised right earlobe was measured by the following method. 1 ml of 0.5% HTAB (hexadecyl trimethylammonium bromide, manufactured by Sigma Chemical Co.)/50 mM potassium phosphate buffer, pH 6.0 was added to the excised right earlobe and homogenized. The supernatant obtained after centrifugation was used as an extract. Measurement of MPO activity in the extract was carried out according to a method using a 96-well plate. […] Absorbance at 450 nm was measured for 3 minutes at every 10 seconds. The slope of the straight line obtained for 1 minute after 10 seconds from the beginning of the reaction was calculated for every each sample. MPO activity when the slope is 1 is defined as 1 unit (U), and number of unit in the extract was obtained. Further, the amount of protein in the extract was quantified by BIO-RAD PROTEIN ASSAY (manufactured by Bio-Rad Laboratories), and expressed as MPO activity/mg protein.

The mark [5] stands for this setting: 2 μmol, Compound (II) p < 0.01 vs. TPA control.
The mark [6] stands for this setting: 2 μmol, significant for Compound (II).

In the case of `CCCCCCCCCCCCCCCCCCNC(=O)OCC(COC(=O)N(Cc1cccc[n+]1CC)C(C)=O)OC` (centres unmarked) [CV-6209, 2-(2-acetyl-6-methoxy-3,9-dioxo-4,8-dioxa-2,10-diazaoctacosa-1-yl)-1-ethylpyridinium salt], in data set [1] (setting [5]), the “Epidermal ODC Activity” value came out at 0.374 ± 0.147 nmol CO2 /mg protein. Moreover, the “inhibition of TPA-induced increase in epidermal ODC activity” value in data set [1] (setting [6]) is given as “about 53%”.
With `CCCCCCCCCCCCCCCCCCNC(=O)OC1CCN(C(=O)OC[C@H](COC(=O)N(Cc2cccc[n+]2CC)C(=O)c2ccccc2OC)OC)CC1` [Compound (II), 1-ethyl-2-[N-(2-methoxy)benzoyl-N-{(2R)-2-methoxy-3-(4-octadecylcarbamoyloxy)piperidinocarbonyloxypropoxy}carbonyl]aminomethyl pyridinium chloride], the LD50 in data set [2] (female) worked out at 50 mg/kg; in data set [2] (male), 46.8 mg/kg; in data set [3] (female) it was 22.9 mg/kg; in data set [3] (male) it was 18.2 mg/kg. For the same compound, the “inhibition for TPA-induced earlobe edema” value in data set [4] (4 nmol/ear) is given as “no inhibition”; in data set [4] (20 nmol/ear), “no inhibition”; in data set [4] (100 nmol/ear, significant) it was “about 81%”. Further, the Right earlobe edema in data set [4] (4 nmol/earlobe) worked out at 105.9 ± 33.4 μm; in data set [4] (20 nmol/earlobe), 92.7 ± 19.8 μm; in data set [4] (100 nmol/earlobe, P < 0.05) it was 16.7 ± 3.0 μm. In addition, the “inhibition against MPO activity” value in the data set with MPO (myeloperoxidase) (4 nmol/ear) is “did not show inhibition”; with MPO (myeloperoxidase) (20 nmol/ear), “did not show inhibition”; with MPO (myeloperoxidase) (100 nmol/ear), “about 46%”. Moreover, the “MPO Activity” value is listed as 7.63 ± 1.30 U/mg, protein with MPO (myeloperoxidase) (4 nmol/earlobe); 8.51 ± 1.21 U/mg, protein in the data set on MPO (myeloperoxidase) (20 nmol/earlobe); 3.45 ± 1.06 U/mg, protein in the data set with MPO (myeloperoxidase) (100 nmol/earlobe). Also, the “Epidermal ODC Activity” value is on record as 0.379 ± 0.130 nmol CO2 /mg protein in data set [1] (0.5 μmol, P < 0.05 vs. TPA control) and 0.136 ± 0.066 nmol CO2 /mg protein in data set [1] (setting [5]). Also, the “inhibition of TPA-induced increase in epidermal ODC activity” value in data set [1] (0.5 μmol, significant) is listed as “about 52%”; in data set [1] (setting [6]) it was about 83%.
`C[C@@H]1C[C@H]2[C@@H]3CCC4=CC(=O)C=C[C@]4(C)[C@@]3(F)[C@@H](O)C[C@]2(C)[C@@]1(O)C(=O)CO` [Dexamethasone, dexamethasone, reference compound]: the “inhibition for TPA-induced earlobe edema” value in data set [4] (250 nmol/ear, significant) is on record as “about 60%”. Moreover, the Right earlobe edema in data set [4] (250 nmol/earlobe, P < 0.05) is given as 34.7 ± 3.3 μm. Also, in the data set on MPO (myeloperoxidase) (250 nmol/ear), the “inhibition against MPO activity” value is “about 13%”. The “MPO Activity” value with MPO (myeloperoxidase) (250 nmol/earlobe) was 5.52 ± 0.59 U/mg, protein.
